Data set [1] addresses T1, low affinity rolipram binding form of PDE IV (LPDE IV), human monocyte PDE IV (Homo sapiens, UniProt P27815).
T1 construct: made in house; host or cells: yeast
Put plainly: PDE IV catalytic activity assay (low affinity form). In kind it is biochemical. The following applies: 1 μM [3H]cAMP as substrate. From the text: (§1) Inhibition of PDE IV catalytic activity can thus be used as an index of the potency of compounds at LPDE IV.

Data set [2] has as its system high affinity rolipram binding form of PDE IV (HPDE IV). Put plainly: [3H]-rolipram binding assay (competition for high affinity site). On the set-up: species or system rat. The following applies: for High/Low Ratio (IC50 high affinity form divided by IC50 low affinity form): HPDE IV IC50 / LPDE IV IC50; for IC50: competition with 1 nM [3H]-rolipram, 1 hour at 30° C. As to the method:
as §1
The assay was run for 1 hour at 30° C. The reaction was terminated and bound ligand was separated from free ligand using a Brandel cell harvester. Competition for the high affinity binding site was assessed under conditions that were identical to those used for measuring low affinity PDE activity, expect that [^3H]-cAMP was not present.

Data set [3] has as its system TNFα production from isolated human monocytes vs acid secretion in isolated rabbit parietal glands. Nature of the data set: therapeutic index, in vitro comparison: suppression of TNFα production vs stimulation of acid secretion. In kind it is cell-based. As to the method: To determine acid secretion, the gastric glands in combination with [^14C]-aminopyrine, various concentrations of selective PDE IV inhibitors, and a threshold concentration of histamine (0.3-1.0 μM) were incubated at 37° C. on a horizontal shaker (110 cycles/min) for 20 minutes according to the procedures of Sack and Spenney (1982). Samples were then centrifuged and radioactivity in aliquots of the supernatant fraction and pellet were determined. Aminopyrine ratios were calculated as described by Sack and Spenney (1982). The data were expressed as a percent of a response produced by a maximal concentration of histamine (100 μM). EC50 values were determined by linear interpolation using the maximum response obtained for each compound.
TNFα inhibition was assessed in human peripheral blood monocytes which were purified (Collata) from freshly obtained buffy coats or plasma-phoresis residues of blood from normal human donors. Monocytes were plated at density of 1×10^6 cells/ml medium/well in 24-well multi-dishes. […]
Levels of TNFα were measured using a ELISA (Winston) employing a murine monoclonal anti-human TNFα antibody (see below) as the capture antibody and a polyclonal rabbit anti-human TNFα as the second antibody. […] TNFα levels in samples were calculated from a standard curve generated with recombinant human TNFα produced in E. coli. […]

For data set [4], the system named is acid secretion. The note with it: rats, particularly in combination with an activator of adenylate cyclase such as histamine; cited from earlier work.
For data set [5] the following is noted: clinical studies; cited from earlier work.
For data set [6], the system named is [3H]-rolipram binding sites in rat brain homogenates. Nature of the data set: high affinity [3H]-rolipram binding sites in rat brain homogenates (Schneider 1986). The note with it: Kd vs Ki. From the text: In 1986, Schneider and colleagues described the presence and characteristics of high affinity, stereoselective [^3H]-rolipram binding sites in rat brain homogenates, Although it was assumed that these binding sites represented the catalytic site of the rat brain “noncalmodulin-dependent, cAMP phosphodiesterase” (i.e. PDE IV), a striking anomaly was apparent in the data.

Each structure is given as a SMILES string.

T1 sequence (P27815 1-686 isoform P27815-3): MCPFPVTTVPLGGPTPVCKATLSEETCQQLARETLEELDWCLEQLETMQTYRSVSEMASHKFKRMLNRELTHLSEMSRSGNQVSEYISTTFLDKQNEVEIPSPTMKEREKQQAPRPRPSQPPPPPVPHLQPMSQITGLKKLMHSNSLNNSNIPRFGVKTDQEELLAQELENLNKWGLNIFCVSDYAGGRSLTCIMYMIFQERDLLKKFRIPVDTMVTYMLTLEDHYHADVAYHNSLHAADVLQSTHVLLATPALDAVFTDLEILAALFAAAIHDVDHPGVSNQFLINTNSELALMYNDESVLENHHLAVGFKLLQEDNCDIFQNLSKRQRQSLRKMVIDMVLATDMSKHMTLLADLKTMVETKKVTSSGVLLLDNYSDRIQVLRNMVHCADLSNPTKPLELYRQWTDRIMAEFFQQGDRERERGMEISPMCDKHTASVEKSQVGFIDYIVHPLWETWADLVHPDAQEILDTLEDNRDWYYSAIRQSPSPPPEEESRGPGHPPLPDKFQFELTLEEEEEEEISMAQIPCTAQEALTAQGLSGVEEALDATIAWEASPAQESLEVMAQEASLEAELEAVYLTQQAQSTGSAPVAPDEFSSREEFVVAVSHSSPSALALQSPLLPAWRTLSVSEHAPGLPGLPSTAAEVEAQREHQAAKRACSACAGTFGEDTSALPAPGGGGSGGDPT

Regarding `COc1ccc([C@@H]2CC[C@H](C(=O)O)C2)cc1OC1CCCC1` (relative stereo) [cis-[3-(3-cyclopentyloxy-4-methoxyphenyl)cyclopentane-1-carboxylate]], the IC50 in data set [1] is 2700 nM.

Regarding `COc1ccc(C2CN(Cc3ccc(N)cc3)C(=O)N2)cc1OC1CCCC1` (stereo not drawn) [1-(4-aminobenzyl)-4-(3-cyclopentyloxy-4-methoxyphenyl)-2-imidazolidinone], the 50% inhibitory concentration (IC50) in data set [1] came out at 1400 nM. Moreover, in data set [2], the “High/Low Ratio (IC50 high affinity form divided by IC50 low affinity form)” value is given as 0.07 and the IC50 is 10 nM.

As for `COc1ccc(C2CCC(c3nnn[nH]3)C2)cc1OC1CCCC1` (stereo not drawn) [1-(5-tetrazole)-3-(3-cyclopentyloxy-4-methoxyphenyl)cyclopentane], the IC50 in data set [1] stood at 1100 nM. Further, in data set [2], the “High/Low Ratio (IC50 high affinity form divided by IC50 low affinity form)” value was 0.0018 and the half-maximal inhibitory concentration (IC50) stood at 2 nM.

For `COC(=O)C1CC(C#N)(c2ccc(OC(F)F)c(OCC3CC3)c2)CCC1=O` (stereo not drawn) [2-carbomethoxy-4-cyano-4-(3-cyclopropylmethoxy-4-difluoromethoxyphenyl)cyclohexan-1-one], the “improvement in therapeutic index in comparison with R-rolipram” value in data set [3] turned out to be 100 fold. The figures for the IC50 in data set [1] and in data set [2] were 140 nM and 500 nM, respectively. In addition, the “High/Low Ratio (IC50 high affinity form divided by IC50 low affinity form)” value in data set [2] is 3.571.

With `COc1ccc(C2CCN(Cc3ccc(NC(=NC#N)SC)cc3)C2=O)cc1OC1CCCC1` (stereo not drawn) [3-(cyclopentyloxy-4-methoxyphenyl)-1-(4-N′-[N2-cyano-S-methyl-isothioureido]benzyl)-2-pyrrolidone], the half-inhibitory concentration (IC50) in data set [1] was 100 nM; in data set [2], 30 nM. Besides, the “High/Low Ratio (IC50 high affinity form divided by IC50 low affinity form)” value in data set [2] is 0.30.

For `CCOC(=O)C=C1C[C@H](c2ccc(OC)c(OC3CCCC3)c2)CN1` [(R)-(+)-ethyl [4-(3-cyclopentyloxy-4-methoxyphenyl)pyrrolidine-2-ylidene]acetate], the values for the IC50 in data set [1] and in data set [2] were 140 nM and 300 nM, respectively. In addition, in data set [2], the “High/Low Ratio (IC50 high affinity form divided by IC50 low affinity form)” value was 2.143.

In the case of `CCOC(=O)C=C1C[C@@H](c2ccc(OC)c(OC3CCCC3)c2)CN1` [(S)-(-)-ethyl[4-(3-cyclopentyloxy-4-methoxphenyl)pyrrolidine-2-ylidene]acetate], in data set [1], the concentration for half-maximal inhibition (IC50) worked out at 460 nM. For the same compound, in data set [2], the “High/Low Ratio (IC50 high affinity form divided by IC50 low affinity form)” value is “.98” and the IC50 is 450 nM.

Turning to `CC(C)Cn1c(=O)n(C)c(=O)c2[nH]cnc21` [IBMX, reference compound], the concentration for half-maximal inhibition (IC50) in data set [1] was found to be 29100 nM; in data set [2] it was 20300 nM. In addition, in data set [2], the “High/Low Ratio (IC50 high affinity form divided by IC50 low affinity form)” value came out at 0.698.

For `COc1ccc(CCNC(=O)C(N)=O)cc1OC1CCCC1` [N-[2-(3-cyclopentyloxy-4-methoxyphenyl)ethyl]oxamide], the IC50 in data set [1] was determined as 890 nM. Besides, in data set [2], the “High/Low Ratio (IC50 high affinity form divided by IC50 low affinity form)” value stood at 0.013 and the IC50 turned out to be 12 nM.

Turning to `CCCCOc1cc(CC2CNC(=O)N2)ccc1OC` (stereo not drawn) [Ro 20-1724], in data set [4], the “effect on acid secretion” value was “enhance acid secretion in rats”.

For the compound `N#CC1(c2ccc(OC(F)F)c(OCC3CC3)c2)CCC(O)CC1` (stereo not drawn) [cis-[4-cyano-4-(3-cyclopropylmethoxy-4-difluoromethoxyphenyl)cyclohexan-1-ol]], in data set [3], the “improvement in therapeutic index in comparison with R-rolipram” value is listed as 100 fold. Further, the concentration for half-maximal inhibition (IC50) turned out to be 21 nM in data set [1] and 40 nM in data set [2].

With `CCCCn1c(=O)c2c(ncn2CC(C)=O)n(CCCC)c1=O` [denbufylline, 7-acetonyl,1,3-dibutylxanthine, reference compound], in data set [2], the IC50 was determined as 50 nM. In data set [5], the side effects result was “may include pyrosis, nausea and emesis”.

Consider `OCCN(CCO)c1nc(N2CCCCC2)c2nc(N(CCO)CCO)nc(N3CCCCC3)c2n1` [dipyridamole, 2,2′,2″,2′″-[(4,8-dipiperidinopyrimido[5,4-d]pyrimidine-2-6-diyl)dinitrilo]tetraethanol, reference compound], for which the results for the IC50 in data set [1] and in data set [2] were 5200 nM and 32500 nM, respectively. Besides, the “High/Low Ratio (IC50 high affinity form divided by IC50 low affinity form)” value in data set [2] was 6.25.

For `COc1ccc(C2CNC(=O)C2)cc1OC1CCCC1` (stereo not drawn) [rolipram], in data set [6], the “difference in affinity for the binding site versus effect on catalytic activity” value stood at 1000 fold. In addition, in data set [4], the “effect on acid secretion” value is listed as “enhance acid secretion in rats”. In data set [5], the side effects entry is “has psychotropic activity and produces gastrointestinal effects, e.g., pyrosis, nausea and emesis”.

Compound `COc1cc2c(cc1OC)-c1c/c(=N\c3c(C)cc(C)cc3C)n(C)c(=O)n1CC2` [trequinsin, 2,3,6,7-tetrahydro-2-(mesitylimino)-9,10 dimethoxy-3-methyl-4H-primido[6,1-a]isoquinoline-4-one, reference compound] gave an IC50 in data set [2] of 5000 nM.

The values above are taken from patent US20020115111A1, “Compounds” (SmithKline Beecham Corporation, priority 1994, published 2002).
